The numbers were not newly measured in US12296046B2, “Micro-emulsion containing creatine fatty-ester, method for preparing said micro-emulsion and uses thereof” (COMMISSARIAT À L'ÉNERGIE ATOMIQUE ET AUX ÉNERGIES …, priority 2018, dated 2025), which cites them from elsewhere.

The series concerns CrT−/y mice. Conditions: 30 mg/kg, intracerebroventricular administration.

In the case of `CCCCCCCCCCCCOC(=O)CN(C)C(=N)N` [DCE, dodecyl creatine ester], the “performance in the object recognition task” value was “significantly improves the performance”.
